Results: PubChem BioAssay AID330 (DTP/NCI, 2004)
Values joined by “and” are separate entries in the source; they are usually repeats but may differ in a detail not shown here. Identical values can stand only once. Inconclusive results and toxic doses are left out. Rule for the calls: active = survival T/C of 150% or more; inactive = T/C below 125% in these data.

Tested on: P388 leukemia ip, CD2F1 mice, survival T/C
Experiment: NCI In Vivo Anticancer Drug Screen. Data for tumor model P388 Leukemia (intraperitoneal) in CD2F1 (CDF1) mice
Conditions: endpoint: median survival time, higher = longer survival
Outline: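 Mice carrying the transplanted tumor received test compound or vehicle. Survival was recorded in each group, and the value is the treated-group measurement divided by that of the vehicle-treated control group.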

[1] = dose: 60.0 mg/kg/injection, schedule: Q01DX005 (ip), vehicle: saline with Tween-80
[2] = dose: 120.0 mg/kg/injection, schedule: Q01DX005 (ip), vehicle: saline with Tween-80
[3] = dose: 240.0 mg/kg/injection, schedule: Q01DX005 (ip), vehicle: saline with Tween-80
[4] = dose: 50.0 mg/kg/injection, schedule: Q01DX005 (ip), vehicle: saline with Tween-80
[5] = dose: 100.0 mg/kg/injection, schedule: Q01DX005 (ip), vehicle: saline with Tween-80
[6] = dose: 200.0 mg/kg/injection, schedule: Q01DX005 (ip), vehicle: saline with Tween-80
[7] = dose: 12.5 mg/kg/injection, schedule: Q01DX005 (ip), vehicle: Klucel (hydroxypropylcellulose) (HPC)
[8] = dose: 25.0 mg/kg/injection, schedule: Q01DX005 (ip), vehicle: Klucel (hydroxypropylcellulose) (HPC)
[9] = dose: 50.0 mg/kg/injection, schedule: Q01DX005 (ip), vehicle: Klucel (hydroxypropylcellulose) (HPC)
[10] = dose: 100.0 mg/kg/injection, schedule: Q01DX001 (ip), vehicle: Klucel (hydroxypropylcellulose) (HPC)
[11] = dose: 200.0 mg/kg/injection, schedule: Q01DX001 (ip), vehicle: Klucel (hydroxypropylcellulose) (HPC)
[12] = dose: 100.0 mg/kg/injection, schedule: Q01DX005 (ip), vehicle: Klucel (hydroxypropylcellulose) (HPC)
[13] = dose: 200.0 mg/kg/injection, schedule: Q01DX005 (ip), vehicle: Klucel (hydroxypropylcellulose) (HPC)
[14] = dose: 25.0 mg/kg/injection, schedule: Q01DX009 (ip), vehicle: saline with Tween-80
[15] = dose: 50.0 mg/kg/injection, schedule: Q01DX009 (ip), vehicle: saline with Tween-80
[16] = dose: 100.0 mg/kg/injection, schedule: Q01DX009 (ip), vehicle: saline with Tween-80

Measured: T/C

COc1ccc2c(c1)CCC(c1nc3cccc([N+](=O)[O-])c3[nH]c1=O)=C2O
inactive: dose: 7.5 mg/kg/injection, schedule: Q01DX005 (ip), vehicle: Klucel + Tween-80 91 % of control | dose: 15.0 mg/kg/injection, schedule: Q01DX005 (ip), vehicle: Klucel + Tween-80 94 % of control | dose: 30.0 mg/kg/injection, schedule: Q01DX005 (ip), vehicle: Klucel + Tween-80 92 % of control

COC(=O)C1(CS(C)=O)NC(=S)NC(=O)C1C#N (centres undefined)
inactive: [1] 106 % of control | [2] 99 % of control | [3] 97 % of control

C=Cc1ccc(NC(=O)CC2SC(=O)NC2=O)cc1 (centres undefined)
inactive: [4] 103 % of control | [5] 97 % of control | [6] 103 % of control

O=C(c1ccc2cc(Cl)c(Cl)cc2c1)C(Cl)Cl
inactive: dose: 1.56 mg/kg/injection, schedule: Q01DX009 (ip), vehicle: Klucel (hydroxypropylcellulose) (HPC) 116 % of control | dose: 3.12 mg/kg/injection, schedule: Q01DX009 (ip), vehicle: Klucel (hydroxypropylcellulose) (HPC) 104 % of control | dose: 6.25 mg/kg/injection, schedule: Q01DX009 (ip), vehicle: Klucel (hydroxypropylcellulose) (HPC) 101 % of control and 97 % of control | dose: 12.5 mg/kg/injection, schedule: Q01DX009 (ip), vehicle: Klucel (hydroxypropylcellulose) (HPC) 88 % of control

C[CH2][Ge]([c]1ccccc1)[c]1ccccc1.C[CH2][Ge]([c]1ccccc1)[c]1ccccc1.c1cc[c]([Ge]([O][Ge]([c]2ccccc2)[c]2ccccc2)[c]2ccccc2)cc1
inactive: dose: 50.0 mg/kg/injection, schedule: Q01DX005 (ip), vehicle: saline 91 % of control | dose: 100.0 mg/kg/injection, schedule: Q01DX005 (ip), vehicle: saline 91 % of control | dose: 200.0 mg/kg/injection, schedule: Q01DX005 (ip), vehicle: saline 91 % of control

CCCCOC(=O)c1ccc(NC(=O)Nc2ccccc2OC)cc1
inactive: dose: 25.0 mg/kg/injection, schedule: Q04DX003 (ip), vehicle: saline with Tween-80 91 % of control | dose: 50.0 mg/kg/injection, schedule: Q04DX003 (ip), vehicle: saline with Tween-80 87 % of control

CC1(C)CC2(OC2c2ccccc2)C(=O)c2ccccc21 (centres undefined)
inactive: dose: 25.0 mg/kg/injection, schedule: Q01DX009 (ip), vehicle: Klucel (hydroxypropylcellulose) (HPC) 89 % of control | dose: 50.0 mg/kg/injection, schedule: Q01DX009 (ip), vehicle: Klucel (hydroxypropylcellulose) (HPC) 89 % of control | dose: 100.0 mg/kg/injection, schedule: Q01DX009 (ip), vehicle: Klucel (hydroxypropylcellulose) (HPC) 87 % of control | dose: 400.0 mg/kg/injection, schedule: Q01DX009 (ip), vehicle: Klucel (hydroxypropylcellulose) (HPC) 88 % of control

CNc1ccc2c(c1)C(=O)c1c(C)n(C)c3cccc-2c13
inactive: [4] 98 % of control

COc1ccc(/C=C/C(=O)OC2CC34CCNC35CC(OC5(OC)C2OC)c2ccc(OC)c(O)c24)cc1O (centres undefined)
inactive: [7] 100 % of control | [8] 100 % of control | [9] 97 % of control

CCN(CC)CCNC(=O)c1nn(C)c(=S)[nH]c1=O
inactive: dose: 100.0 mg/kg/injection, schedule: Q04DX002 (ip), vehicle: Klucel (hydroxypropylcellulose) (HPC) 93 % of control | dose: 200.0 mg/kg/injection, schedule: Q04DX002 (ip), vehicle: Klucel (hydroxypropylcellulose) (HPC) 93 % of control | dose: 400.0 mg/kg/injection, schedule: Q04DX002 (ip), vehicle: Klucel (hydroxypropylcellulose) (HPC) 101 % of control

COc1ccc(Nc2ncnc3ccccc23)cc1CN(CCCl)CCCl
inactive: [10] 100 % of control | [11] 90 % of control

Cc1ccc(C(=O)CSCC(=O)c2ccc(C)cc2)cc1
inactive: [9] 87 % of control | [12] 86 % of control | [13] 94 % of control

CCCCCC(C)N(C)C(=O)CNCC(C)C (centres undefined)
inactive: [4] 100 % of control | [5] 108 % of control

O=C(O)/C=C\C(=O)Nc1ccccn1
inactive: dose: 5.0 mg/kg/injection, schedule: Q01DX009 (ip), vehicle: saline with Tween-80 109 % of control | dose: 5.0 mg/kg/injection, schedule: Q01DX009 (ip), vehicle: saline 100 % of control | dose: 10.0 mg/kg/injection, schedule: Q01DX009 (ip), vehicle: saline with Tween-80 100 % of control | dose: 10.0 mg/kg/injection, schedule: Q01DX009 (ip), vehicle: saline 105 % of control | dose: 20.0 mg/kg/injection, schedule: Q01DX009 (ip), vehicle: saline with Tween-80 104 % of control | dose: 30.0 mg/kg/injection, schedule: Q01DX009 (ip), vehicle: saline 105 % of control | dose: 60.0 mg/kg/injection, schedule: Q01DX009 (ip), vehicle: saline 100 % of control

Nc1nc(N)nc(-c2cccs2)n1
inactive: [14] 92 % of control | [15] 101 % of control | dose: 50.0 mg/kg/injection, schedule: Q04DX002 (ip), vehicle: saline with Tween-80 92 % of control | [16] 100 % of control | dose: 100.0 mg/kg/injection, schedule: Q04DX002 (ip), vehicle: saline with Tween-80 90 % of control | dose: 200.0 mg/kg/injection, schedule: Q04DX002 (ip), vehicle: saline with Tween-80 106 % of control

CC(=O)Nc1nc(NC(C)=O)c(N=O)c(NC(C)=O)n1
inactive: [14] 103 % of control | dose: 25.0 mg/kg/injection, schedule: Q01DX009 (ip), vehicle: saline 108 % of control | [15] 103 % of control | dose: 50.0 mg/kg/injection, schedule: Q01DX009 (ip), vehicle: saline 108 % of control and 120 % of control | [16] 94 % of control | dose: 100.0 mg/kg/injection, schedule: Q01DX009 (ip), vehicle: saline 112 % of control

CC1CCC2(C)OC1OC2=O (centres undefined)
inactive: [4] 97 % of control | [5] 91 % of control | [6] 87 % of control

C/C(=C1/SC(=S)NC1=O)c1ccc(Cl)c(O)c1
inactive: [1] 99 % of control | [2] 97 % of control | [3] 88 % of control

O=C1c2ccccc2C(=O)c2c(NCCN3CCNCC3)ccc(NCCN3CCNCC3)c21
inactive: dose: 4.0 mg/kg/injection, schedule: Q01DX009 (ip), vehicle: acid diluted with saline 103 % of control | dose: 8.0 mg/kg/injection, schedule: Q01DX009 (ip), vehicle: acid diluted with saline 109 % of control | dose: 12.5 mg/kg/injection, schedule: Q01DX009 (ip), vehicle: water 107 % of control | dose: 16.0 mg/kg/injection, schedule: Q01DX009 (ip), vehicle: acid diluted with saline 120 % of control | dose: 50.0 mg/kg/injection, schedule: Q01DX009 (ip), vehicle: water 123 % of control

c1ccc(-c2nnc(-c3ccccc3)c3c2nn2ccc4ccccc4c32)cc1
inactive: dose: 100.0 mg/kg/injection, schedule: Q01DX001 (ip), vehicle: saline with Tween-80 90 % of control | dose: 200.0 mg/kg/injection, schedule: Q01DX001 (ip), vehicle: saline with Tween-80 89 % of control | dose: 400.0 mg/kg/injection, schedule: Q01DX001 (ip), vehicle: saline with Tween-80 103 % of control

COc1ccc2ncc(COC(=O)Nc3ccccc3)c(COC(=O)Nc3ccccc3)c2c1
inactive: [7] 102 % of control and 106 % of control | [8] 100 % of control and 94 % of control | [9] 100 % of control and 95 % of control and 97 % of control

CCCCCCC1NC1Cc1ccccc1 (centres undefined)
inactive: dose: 4.5 mg/kg/injection, schedule: Q01DX009 (ip), vehicle: saline with Tween-80 115 % of control | dose: 9.0 mg/kg/injection, schedule: Q01DX009 (ip), vehicle: saline with Tween-80 111 % of control | dose: 18.0 mg/kg/injection, schedule: Q01DX009 (ip), vehicle: saline with Tween-80 110 % of control

Cc1ccc(O)c(C(=NCCCCN=C(c2ccccc2)c2cc(C)ccc2O)c2ccccc2)c1.[Ni]
inactive: [8] 97 % of control | [9] 97 % of control | [12] 103 % of control | [13] 94 % of control

c1ccc2c(SCCCCCCCCCCCSc3c4ccccc4nc4ccccc34)c3ccccc3nc2c1
inactive: dose: 60.0 mg/kg/injection, schedule: Q01DX005 (ip), vehicle: Klucel (hydroxypropylcellulose) (HPC) 106 % of control | dose: 120.0 mg/kg/injection, schedule: Q01DX005 (ip), vehicle: Klucel (hydroxypropylcellulose) (HPC) 101 % of control | dose: 240.0 mg/kg/injection, schedule: Q01DX005 (ip), vehicle: Klucel (hydroxypropylcellulose) (HPC) 90 % of control

Cc1ccc(S(=O)(=O)N/N=C\c2c(-c3ccc(Cl)cc3)nc3sccn23)cc1
inactive: [10] 93 % of control | [11] 94 % of control
